Compound `*N/C(C#N)=C(\C#N)NC(=O)c1ccc(C(*)=O)cc1` (repeat unit) returned a glass transition temperature of 232.00 °C.

`*Oc1cc(C(C)(C)C)c(Oc2ccc(C(=O)Nc3ccc(C(C)(C)c4ccc(NC(=O)c5ccc(*)cc5)cc4)cc3)cc2)cc1C(C)(C)C` (repeat unit) gave a glass transition temperature of 254.00 °C.

In turn, `*Oc1cc(C(C)(C)C)c(Oc2ccc(C(=O)c3ccc(*)cc3)cc2)cc1C(C)(C)C` (repeat unit) showed a glass transition temperature of 206.00 °C.

With `*Oc1ccc(/N=N/c2ccc(S(=O)(=O)c3ccc(/N=N/c4ccc(OC(=O)c5ccc(/N=N/c6ccc(C(*)=O)cc6)cc5)cc4)cc3[N+](=O)[O-])c([N+](=O)[O-])c2)cc1` (repeat unit), the glass transition temperature came out at 150.00 °C.

The compound `*Oc1ccc(C(=O)O)c(C(=O)Nc2ccc(NC(=O)c3cc(*)ccc3C(=O)O)cc2)c1` (repeat unit) returned a glass transition temperature of 166.30 °C.

For the compound `*Oc1ccc(C(=O)OCCOCCOC(=O)c2ccc(OC(*)=O)cc2)cc1` (repeat unit), the glass transition temperature turned out to be 51.00 °C.

Compound `*Oc1ccc(C(=O)c2ccc(*)cc2)cc1` (repeat unit) displayed a glass transition temperature of 154.00 °C.

`*Oc1ccc(C(=O)c2ccc(Oc3ccc4c(=O)n5c6cc(-c7ccc8c(c7)nc7c9ccc(*)c%10cccc(c(=O)n87)c%109)ccc6nc5c5cccc3c45)cc2)cc1` (repeat unit) gave a glass transition temperature of 389.00 °C.

As for `*Oc1ccc(C(c2ccc(OC(*)=O)cc2)(C(F)(F)F)C(F)(F)F)cc1` (repeat unit), the glass transition temperature was found to be 176.00 °C.

For `*Oc1ccc(C(c2ccc(OC(*)=O)cc2)C(Cl)(Cl)Cl)cc1` (repeat unit), the glass transition temperature is 230.00 °C.

Compound `*Oc1ccc(C(c2ccc(OC(*)=O)cc2)C(Cl)Cl)cc1` (repeat unit) registered a glass transition temperature of 165.00 °C.

Regarding `*Oc1ccc(C(c2ccc(OC(=O)c3ccc(C(c4ccc(C(*)=O)cc4)(C(F)(F)F)C(F)(F)F)cc3)cc2)(C(F)(F)F)C(F)(F)F)cc1` (repeat unit), the glass transition temperature worked out at 135.00 °C.

In the case of `*Oc1ccc(C(c2ccc(OC(=O)c3ccccc3-c3ccccc3C(*)=O)cc2)(C(F)(F)F)C(F)(F)F)cc1` (repeat unit), the glass transition temperature came out at 162.00 °C.

In turn, `*Oc1ccc(C(c2ccc(Oc3c(F)c(F)c(COC(c4cccc(C(OCc5c(F)c(F)c(*)c(F)c5F)(C(F)(F)F)C(F)(F)F)c4)(C(F)(F)F)C(F)(F)F)c(F)c3F)cc2)(C(F)(F)F)C(F)(F)F)cc1` (repeat unit) registered a glass transition temperature of 113.00 °C.

`*Oc1ccc(C(c2ccccc2)(c2ccccc2)c2ccc(OC(=O)c3cccc(C(*)=O)c3)cc2)cc1` (repeat unit) registered a glass transition temperature of 229.00 °C.

For the compound `*Oc1ccc(C2(c3ccc(OC(*)=O)cc3)CC3CC2C2C4CCC(C4)C32)cc1` (repeat unit), the glass transition temperature was 267.50 °C.

Regarding `*Oc1ccc(C2(c3ccc(OC(*)=O)cc3)CC3CC2C2CCCC32)cc1` (repeat unit), the glass transition temperature came out at 251.50 °C.

In the case of `*Oc1ccc(C2(c3ccc(OC(=O)c4ccc(C(*)=O)cc4)cc3)CC3CC2C2CCCC32)cc1` (repeat unit), the glass transition temperature amounted to 322.00 °C.

In turn, `*Oc1ccc(C2(c3ccc(OC(=O)c4ccc(C(*)=O)cc4)cc3)CCc3ccccc32)cc1` (repeat unit) registered a glass transition temperature of 312.00 °C.

`*Oc1ccc(C2(c3ccc(OC(=O)c4ccc(C(*)=O)cc4)cc3)c3ccccc3-c3ccccc32)cc1` (repeat unit) registered a glass transition temperature of 285.00 °C.

The compound `*Oc1ccc(C2(c3ccc(OC(=O)c4ccc(C(*)=O)cc4)cc3)c3ccccc3Cc3ccccc32)cc1` (repeat unit) came in with a glass transition temperature of 342.00 °C.

Take `*Oc1ccc(C2(c3ccc(OC(=O)c4cccc(C(*)=O)c4)cc3)c3ccccc3-c3ccccc32)cc1` (repeat unit): the glass transition temperature came out at 269.50 °C.

`*Oc1ccc(C2(c3ccc(OC4(F)C(*)(F)C(F)(F)C4(F)F)cc3)c3ccccc3-c3ccccc32)cc1` (repeat unit) had a glass transition temperature of 228.00 °C.

Regarding `*Oc1ccc(C2(c3ccc(Oc4ccc5c(=O)n6c7cc(Oc8ccc9c(c8)nc8c%10ccc(*)c%11cccc(c(=O)n98)c%11%10)ccc7nc6c6cccc4c56)cc3)c3ccccc3-c3ccccc32)cc1` (repeat unit), the glass transition temperature was found to be 396.00 °C.

`*Oc1ccc(C2(c3ccc(Oc4nc(*)nc(OC)n4)cc3)CCCCC2)cc1` (repeat unit) displayed a glass transition temperature of 200.00 °C.

`*Oc1ccc(Cc2ccc(OC(*)=O)cc2)cc1` (repeat unit) registered a glass transition temperature of 133.50 °C.

For the compound `*Oc1ccc(Cc2ccc(OC(=O)c3cccc(C(*)=O)c3)cc2)cc1` (repeat unit), the glass transition temperature was 150.00 °C.

Turning to `*Oc1ccc(Oc2ccc(C(=O)c3ccc(*)c(S(=O)(=O)O)c3)cc2S(=O)(=O)O)cc1` (repeat unit), the glass transition temperature was 220.00 °C.

On to `*Oc1ccc(Oc2ccc(C(=O)c3ccc(*)cc3)cc2)cc1-c1cc(C)cc(C)c1` (repeat unit), for which the glass transition temperature stood at 162.00 °C.

Turning to `*Oc1ccc(Oc2ccc(C(=O)c3ccc(*)cc3)cc2)cc1-c1cccc(C(F)(F)F)c1` (repeat unit), the glass transition temperature came to 134.00 °C.

The compound `*Oc1ccc(Oc2ccc(C(=O)c3ccc(*)cc3)cc2)cc1S(=O)(=O)O` (repeat unit) displayed a glass transition temperature of 225.00 °C.

Compound `*Oc1ccc(Oc2ccc(C(=O)c3ccc(-c4ccc(C(=O)c5ccc(*)cc5)cc4)cc3)cc2)cc1-c1cccc(C)c1` (repeat unit) displayed a glass transition temperature of 170.00 °C.

As to `*Oc1ccc(Oc2ccc(C(=O)c3ccc(C(=O)c4ccc(*)cc4)cc3)cc2)cc1-c1cccc(C)c1` (repeat unit), the glass transition temperature worked out at 159.00 °C.

On to `*Oc1ccc(Oc2ccc(C(=O)c3ccc(Oc4ccc(Oc5cccc(*)n5)cc4)cc3)cc2)cc1` (repeat unit), for which the glass transition temperature came out at 124.00 °C.

With `*Oc1ccc(S(=O)(=O)c2ccc(Oc3ccc(C(=O)c4ccc(*)cc4)cc3)cc2)cc1` (repeat unit), the glass transition temperature was 205.00 °C.

In turn, `*Oc1ccc(S(=O)(=O)c2ccc(Oc3ccc(C(c4ccc(*)cc4)(C(F)(F)F)C(F)(F)F)cc3)cc2[Si](C)(C)C)c([Si](C)(C)C)c1` (repeat unit) had a glass transition temperature of 172.00 °C.

For `*c1ccc(Cc2ccc(N3C(=O)C(Cl)=C(Oc4ccc(C(c5ccc(OC6=C(Cl)C(=O)N(*)C6=O)cc5)(C(F)(F)F)C(F)(F)F)cc4)C3=O)cc2)cc1` (repeat unit), the glass transition temperature amounted to 189.00 °C.

In turn, `*c1ccc(OC(=O)c2cc(Cl)cc(C(=O)Oc3ccc(C4(*)OC(=O)c5ccccc54)cc3)c2)cc1` (repeat unit) returned a glass transition temperature of 313.00 °C.

For `*c1ccc(OC(=O)c2ccc(C(=O)Oc3ccc(C4(*)OC(=O)c5ccccc54)cc3)cc2)cc1` (repeat unit), the glass transition temperature turned out to be 279.00 °C.

As to `*c1ccc(OC(=O)c2cccc(C(=O)Oc3ccc(C4(*)OC(=O)c5ccccc54)cc3)c2)cc1` (repeat unit), the glass transition temperature turned out to be 282.50 °C.

For `*c1ccc(Oc2ccc(-c3ccc(Oc4ccc(N5C(=O)c6ccc(Oc7ccc(-c8ccc(Oc9ccc%10c(c9)C(=O)N(*)C%10=O)cc8)cc7)cc6C5=O)cc4)cc3)cc2)cc1` (repeat unit), the glass transition temperature was determined as 220.00 °C.

In turn, `*c1ccc(Oc2ccc(C3(c4ccc(Oc5ccc(N6C(=O)c7ccc(Oc8ccc(C9(c%10ccc(Oc%11ccc%12c(c%11)C(=O)N(*)C%12=O)cc%10)CCC(c%10ccccc%10)CC9)cc8)cc7C6=O)cc5)cc4)CC4CCC3C4)cc2)cc1` (repeat unit) returned a glass transition temperature of 245.00 °C.

Consider `*c1ccc(Oc2ccc(C3(c4ccc(Oc5ccc(N6C(=O)c7ccc(Oc8ccc(C9(c%10ccc(Oc%11ccc%12c(c%11)C(=O)N(*)C%12=O)cc%10)CCCCCCCCCCC9)cc8)cc7C6=O)cc5)cc4)CC4CCC3C4)cc2)cc1` (repeat unit), for which the glass transition temperature came out at 259.00 °C.

`*c1ccc(Oc2ccc(N3C(=O)c4ccc(Oc5ccc(C6(c7ccc(Oc8ccc9c(c8)C(=O)N(*)C9=O)cc7)CCC(c7ccccc7)CC6)cc5)cc4C3=O)cc2)cc1` (repeat unit): the glass transition temperature came to 236.00 °C.

In turn, `*c1ccc(Oc2ccc(N3C(=O)c4ccc(Oc5ccc(C6(c7ccc(Oc8ccc9c(c8)C(=O)N(*)C9=O)cc7)CCCCCCCCCCC6)cc5)cc4C3=O)cc2)cc1` (repeat unit) showed a glass transition temperature of 230.00 °C.

Compound `*c1ccc(Oc2ccc(N3C(=O)c4cccc(Oc5ccc(-c6ccc(Oc7cccc8c7C(=O)N(*)C8=O)cc6)cc5)c4C3=O)cc2)cc1` (repeat unit) registered a glass transition temperature of 277.00 °C.

Take `*c1ccc(Oc2ccc(Oc3ccc(-n4c(=O)c5cc6c(=O)n(*)c(=O)c6cc5c4=O)cc3)cc2C(C)(C)C)cc1` (repeat unit): the glass transition temperature is 314.00 °C.

For `*c1ccc(Oc2ccc(Oc3ccc(-n4c(=O)c5cc6c(=O)n(*)c(=O)c6cc5c4=O)cc3)cc2C)cc1` (repeat unit), the glass transition temperature worked out at 310.00 °C.

Compound `*c1ccc(Oc2ccc(Oc3ccc(N4C(=O)c5ccc(-c6ccc7c(c6)C(=O)N(*)C7=O)cc5C4=O)cc3)c(C(C)(C)C)c2)cc1` (repeat unit) came in with a glass transition temperature of 274.00 °C.

In turn, `*c1ccc(Oc2ccc(Oc3ccc(N4C(=O)c5ccc(Oc6ccc(-c7ccc(Oc8ccc9c(c8)C(=O)N(*)C9=O)cc7)cc6)cc5C4=O)cc3)cc2)cc1` (repeat unit) came in with a glass transition temperature of 222.00 °C.

As for `*c1ccc(Oc2ccc(Sc3ccc(Oc4ccc(N5C(=O)c6ccc(Oc7ccc(-c8ccc(Oc9ccc%10c(c9)C(=O)N(*)C%10=O)cc8)cc7)cc6C5=O)cc4)cc3)cc2)cc1` (repeat unit), the glass transition temperature was 206.00 °C.

On to `*c1ccc(Oc2cccc(Oc3ccc(N4C(=O)c5cccc(Oc6ccc(-c7ccc(Oc8cccc9c8C(=O)N(*)C9=O)cc7)cc6)c5C4=O)cc3)c2)cc1` (repeat unit), for which the glass transition temperature was 224.00 °C.

In turn, `*c1cccc(Oc2ccc(P(=O)(c3ccccc3)c3ccccc3)c(Oc3cccc(N4C(=O)c5ccc(Oc6ccc(-c7ccc(Oc8ccc9c(c8)C(=O)N(*)C9=O)cc7)cc6)cc5C4=O)c3)c2)c1` (repeat unit) registered a glass transition temperature of 227.00 °C.

The compound `*c1nnc(-c2ccc(Oc3ccc(/C=C/c4ccc(Oc5ccc(*)c6ccccc56)cc4)c4ccccc34)c3ccccc23)o1` (repeat unit) displayed a glass transition temperature of 241.00 °C.
